Data on three compounds can be found in publication PMC3041857 (Journal of medicinal chemistry, 2011).

This data set concerns MDR1-MDCK cell monolayers.

`COc1ccc(-c2csc(Nc3ccc4ccccc4n3)n2)cc1OC` [Compound 18, [4-(3,4-dimethoxyphenyl)-thiazol-2-yl]-quinolin-2-yl-amine]: the “Permeability (in words)” value is “greater permeability in the absorptive direction”.
Regarding `Cc1ccc(Nc2nc(-c3c(-c4ccccc4)noc3C)cs2)nc1` [Compound 28, [4-(5-Methyl-3-phenylisoxazol-4-yl)-thiazol-2-yl]-(5-methylpyridin-2-yl)-amine], the “Permeability (in words)” value was “greater permeability in the absorptive direction”.
On to `COc1ccc(-c2csc(Nc3ccc(C(F)(F)F)cn3)n2)cc1OC` [Compound 12, [4-(3,4-dimethoxyphenyl)-thiazol-2-yl]-(5-trifluoromethylpyridin-2-yl)-amine], for which the “Permeability (in words)” value is on record as “greater permeability in the absorptive direction”.
